Read-outs that look alike come from different tables or passages of the source. One block for each molecule: values may come before it.
Experiments:
[1] = Lability of yttrium complexes on addition of excess metal; format: physicochemical; settings: Y
Method: (§1) A disposable 10 ml plastic (Biorad) column was filled with 1 to 2 ml of water-swelled Sephadex™ C-25 cation exchange resin. The water was pressure eluted to the top of the resin. Fifteen μl of the complex (or more if counts were low) were added to the top of the resin. This was followed by 2 ml of 4:1 (V:V) isotonic saline:conc. ammonium hydroxide solution as an eluent which was allowed to drip into a counting tube. This was also pressure eluted to the top of the resin. An additional 2 ml of the eluent were added and the column pressure eluted to remove all liquid. The dried resin was then placed in a third counting tube and the three tubes counted on a NaI well counter using a Canberra multichannel analyzer linked to a computer. The percent complex was determined by dividing the number of counts in the two elutions by the total counts in the elutions plus the column, all times 100. By this method, uncomplexed yttrium was retained on the column.
The 1:1 complex of yttrium with 1-(p-aminobenzyl)diethylenetriaminepentaacetic acid (ABDTPA), a well known bifunctional chelant used in the literature, and with the ligand of Example 2 (Now Ex. XVI) and Example 12 (now Ex. XVII) were prepared using the techniques described earlier. Several 100 microliter aliquots were then withdrawn into separate centrifuge tubes. Excess metal was added such that the total volume change is minimized and the time noted. One-half hour after metal addition, the percent complex was determined by the Sephadex™ C-25 method and this was compared to the original amount of complex. The percent complex versus added metal gives an indication as to the lability of the ligand-metal complex. Results are given below and are compared to the EDTA-yttrium complex.

[2] = cited from earlier work
[3] = In vivo screening of bifunctional chelates: biodistribution, percent injected dose in liver; settings: rat, i.v. tail vein, 2 hours
[4] = Percent complex determination, yttrium complexes (Sephadex C-25 cation exchange); format: physicochemical; settings: Y
Method: The yttrium and/or samarium complexes of several of the compounds were prepared and percent complexation determined as follows:
Complexes were made by preparing a 0.0003M yttrium solution in water. (YCl3 ·6H2 O, 303.26 g/mole; Y(OAc)3, 12.1% H2 0). Radioactive YCl3 (Oakridge National Laboratories) was added to give the desired number of counts. Ten μl of ligand solution (at 0.03M) were added to 990 μl of the Y solution, giving a ligand-to-metal ratio of 1:1. (Ten times the amount of ligand solution was used for a 10:1 ligand to metal ratio.) The pH was then adjusted to 7.4 using microliter quantities of hydrochloric acid or sodium hydroxide. The solution was then tested for the amount of complexed yttrium using the cation exchange method given below.
as §1

[5] = Biodistribution in rabbit; format: in vivo; settings: Y-90, 10 times molar excess ligand
Method: Muscle was calculated using 46% of body weight.
A rabbit was injected in the same manner as the rats with a formulation having Y-90 with Y at 3×10^-4 M and the ligand of Example 10 at 10 times molar excess.

[6] = test system: osteosarcoma in the right proximal humerus; experiment: Treatment of a dog with osteosarcoma; format: in vivo; settings: Sm-153, 300 times molar excess ligand, I.V. 0.95 mCi/Kg, one week after injection
Method: A dog was presented with an osteosarcoma in the right proximal humerus and walked with significant lameness. A complex was prepared using the ligand of Example 10 with a Sm-153 solution. The concentration of Sm was 3×10^-4 M and the ligand was used with a 300 times molar excess. The specific activity of the Sm-153 was 30 mCi/ml. The dog was given an I.V. injection of this complex containing 0.95 mCi of Sm-153 per Kg body weight of the dog.

Biodistribution in rats = settings: 2 hours
[7] = Percent complex determination, samarium complexes (Sephadex C-25 cation exchange); format: physicochemical; settings: Sm
Method: as §1, with “100.” for “100. By this method, uncomplexed yttrium was retained on the column.”
Samarium complexes were formed as described previously for yttrium complexes except that 0.0003M samarium was prepared by dissolution of Sm2 03 (348.7 g mole) in 0.1M hydrochloric acid. […] Percent complex determination was made in the same manner as for the yttrium complex.

[8] = Inertness of antibody-complex conjugates challenged with excess DTPA; format: physicochemical; settings: 1000 fold molar excess of DTPA, pH 7.4, one hour
Method: The purified antibody-complexes were added to HEPES buffer (N-2-hydroxyethylpiperazine-N'-2-ethanesulfonic acid) at pH 7.4 and treated with an appropriate amount of 0.1M DTPA solution (pH 7.4) to ensure a 1000 fold molar excess of DTPA over complex attached to antibody. After one hour an aliquot was removed and the antibody-complex conjugates were separated from low molecular weight substances using gel-filtration.

[9] = radionuclide; cited from earlier work
[10] = Metal/Ligand Molar Ratio 10, one-half hour after metal addition
[11] = Metal/Ligand Molar Ratio 100, one-half hour after metal addition
[12] = Metal/Ligand Molar Ratio 250, one-half hour after metal addition
[13] = Metal/Ligand Molar Ratio 500, one-half hour after metal addition
[14] = Ho-166, 300 times molar excess ligand
[15] = Sm-153, 10 times molar excess ligand
[16] = Sm-153, 300 times molar excess ligand

SMILES: O=C(O)CN(CCN(CC(=O)O)CC(=O)O)CC(=O)O [EDTA, ethylenediaminetetraacetic acid]
% Complex ([1]; Metal/Ligand Molar Ratio 1): 98%
% Complex [1, 10]: 86%
% Complex [1, 11]: 78%
% Complex [1, 12]: 48%
% Complex [1, 13]: 16%
concentrations of radioactivity in organs ([2]; Sc-46, Y-91, La-140, Sm-153, chelant to metal 5:1): high concentrations of radioactivity were observed in the liver, spleen, kidney, lung and bone
% Injected Dose in Liver ([3]; Sm, ligand/metal 5:1): 8.4%
% Injected Dose in Liver ([3]; Sm, ligand/metal about 300:1): 4.4%

SMILES: CC(=O)Nc1cc(C(C(=O)O)N(CC(=O)O)CC(=O)O)c(O)c(C(C(=O)O)N(CC(=O)O)CC(=O)O)c1 (centres unmarked) [Example 10, 2,6-BIS{[BIS(CARBOXYMETHYL)AMINO](CARBOXY)METHYL}-4-(ACETAMIDO) PHENOL]
% Complex ([4]; ligand/metal 10:1): 98%
biodistribution, blood (% dose) [5]: 0.68%
biodistribution, bone (% dose) [5]: 59%
biodistribution, liver (% dose) [5]: 1.1%
biodistribution, muscle (% dose) [5]: 1.5%
biodistribution, spleen (% dose) [5]: 0.19%
dog's gait [6]: noticeably improved
biodistribution, blood (% dose) (Biodistribution in rats; [14]): 0.09%
biodistribution, bone (% dose) (Biodistribution in rats; [14]): 52.9%
biodistribution, liver (% dose) (Biodistribution in rats; [14]): 0.26%
biodistribution, muscle (% dose) (Biodistribution in rats; [14]): 1.1%
biodistribution, spleen (% dose) (Biodistribution in rats; [14]): 0.007%
biodistribution, blood (% dose) (Biodistribution in rats; [15]): 0.18%
biodistribution, bone (% dose) (Biodistribution in rats; [15]): 48.5%
biodistribution, liver (% dose) (Biodistribution in rats; [15]): 1.3%
biodistribution, muscle (% dose) (Biodistribution in rats; [15]): 0.73%
biodistribution, spleen (% dose) (Biodistribution in rats; [15]): 0.01%
biodistribution, blood (% dose) (Biodistribution in rats; [16]): 0.05%
biodistribution, bone (% dose) (Biodistribution in rats; [16]): 52.7%
biodistribution, liver (% dose) (Biodistribution in rats; [16]): 0.12%
biodistribution, muscle (% dose) (Biodistribution in rats; [16]): 0.23%
biodistribution, spleen (% dose) (Biodistribution in rats; [16]): 0.005%
% Injected Dose in Liver ([3]; Ho, (300)): 0.26%
% Injected Dose in Liver ([3]; Sm, (300)): 0.12%
% Injected Dose in Liver ([3]; Sm, ligand/metal 10:1): 1.3%
% Injected Dose in Liver ([3]; Y, ligand/metal 10:1): 0.39%

% Complex ([4]; ligand/metal 10:1): 99%
% Complex ([4]; ligand/metal ratio about 1:1): 98%
% Complex ([7]; ligand/metal 10:1): 98%
% Complex ([7]; ligand/metal ratio about 1:1): 98%
% Complex ([1]; Metal/Ligand Molar Ratio 1): 95%
% Complex [1, 10]: 93%
% Complex [1, 11]: 90%
% Complex [1, 12]: 90%
% Complex [1, 13]: 79%
SMILES: Nc1cc(CN(CCN(CC(=O)O)CC(=O)O)CC(=O)O)c(O)c(CN(CCN(CC(=O)O)CC(=O)O)CC(=O)O)c1 [Example 12]
yttrium lost from antibody-complex conjugate [8]: approximately 39%

SMILES: O=C(O)CN(CC(=O)O)CC(=O)O [NTA, nitrilotri-acetic acid, reference compound]
concentrations of radioactivity in organs ([2]; mouse, in vivo): high concentrations of radioactivity were observed in the liver, spleen, kidney, lung and bone
% Injected Dose in Liver ([3]; Sm, ligand/metal about 300:1): 8.6%

SMILES: [89Sr] [Strontium-89]
half-life [9]: 50.4 days

% Complex ([1]; Metal/Ligand Molar Ratio 1): 97%
% Complex [1, 10]: 95%
% Complex [1, 11]: 92%
% Complex [1, 12]: 87%
% Complex [1, 13]: 70%
SMILES: Nc1ccc(CC(CN(CCN(CC(=O)O)CC(=O)O)CC(=O)O)N(CC(=O)O)CC(=O)O)cc1 (centres unmarked) [ABDTPA, 1-(p-aminobenzyl)diethylenetriaminepentaacetic acid]
yttrium lost from antibody-complex conjugate [8]: over 98%
